Series [1] can be described thus: Elimination rate constant in rat at 5 mg/kg, iv measured upto 24 hrs by LC-MS/MS analysis. In kind it is ADME, organism-based. As to conditions: in vivo.
Series [2] relates to CWR22R. Nature of the series: Downregulation of AR genes expression in human 22Rv1 cells at 1 uM measured after 24 to 36 hrs by RNA sequencing analysis. The format is functional, cell-based. As to conditions: time 24-36 hrs.
The test system of series [3] is CWR22R. Nature of the series: Downregulation of SKP2 gene expression in human 22Rv1 cells at 1 uM measured after 24 to 36 hrs by RNA sequencing analysis. The settings on record: time 24-36 hrs. In kind it is functional, cell-based.
The subject of series [4] is CWR22R. Nature of the series: Downregulation of DDC gene expression in human 22Rv1 cells at 1 uM measured after 24 to 36 hrs by RNA sequencing analysis. In kind it is functional, cell-based. The settings on record: time 24-36 hrs.
Series [5] concerns CWR22R. Nature of the series: Downregulation of AR-v7 level in human 22Rv1 cells measured for 24 to 36 hrs by Western blot analysis. The format is functional, cell-based. The settings on record: dose 0.5-10 µM, time 24-36 hrs. In general terms: Immunoblotting shows a protein as a band on a membrane.
Series [6] is described as follows: MRT (0 to t) in rat at 5 mg/kg, iv measured upto 24 hrs by LC-MS/MS analysis. The format is ADME, organism-based. As to conditions: in vivo.
In series [7] the test system is PC-3. Nature of the series: Antiproliferative activity against human PC-3 cells measured after 3 days by celltiter-glo luminescence assay. The format is functional, cell-based. The settings on record: PC-3, 72 h. For orientation: In ATP-based viability assays light output follows the ATP content of the culture.
The subject of series [8] is CWR22R. The series is described as follows: Downregulation of AR-v7 level in human 22Rv1 cells at 0.5 to 10 uM measured after 36 hrs by Western blot analysis. The format is functional, cell-based. The settings on record: dose 0.5-10 µM.
Series [9] concerns CWR22R. The series is described as follows: Antiproliferative activity against AR-v7 positive human 22Rv1 cells measured after 3 days by celltiter-glo luminescence assay. The format is functional, cell-based. The settings on record: Homo sapiens, 22Rv1, 72 h; read-out: IC50.
For series [10], the system named is CWR22R. Nature of the series: Downregulation of UHRF1 gene expression in human 22Rv1 cells at 1 uM measured after 24 to 36 hrs by RNA sequencing analysis. In kind it is functional, cell-based. As to conditions: time 24-36 hrs.
Series [11] concerns CWR22R. Nature of the series: Downregulation of GINS1 gene expression in human 22Rv1 cells at 1 uM measured after 24 to 36 hrs by RNA sequencing analysis. The format is functional, cell-based. As to conditions: time 24-36 hrs.
A short description of series [12]: Antiproliferative activity against Ar-luc mouse Adipose stromal cell measured after 3 days by celltiter-glo luminescence assay. The format is toxicity, cell-based. As to conditions: Ar-luc mouse adipose stromal cells.
The subject of series [13] is CWR22R. Nature of the series: Downregulation of androgen receptor in human 22Rv1 cells at 0.5 to 10 uM by Western blot analysis. The format is functional, cell-based. As to conditions: dose 0.5-10 µM, time 24-36 hrs, TDE = time-dependent effect.
For series [14], the system named is CWR22R. The series is described as follows: Downregulation of GRB10 gene expression in human 22Rv1 cells at 1 uM measured after 24 to 36 hrs by RNA sequencing analysis. The format is functional, cell-based. As to conditions: time 24-36 hrs.

Activity calls are given as the source filed them. No cut-off for these calls is given here.

On to `Clc1ccc(COn2nnnc2-c2ccc(Cl)cc2)cc1`, for which, in series [1], the k el at 24 h is 0.000292 s⁻¹. Moreover, the outcome in series [2], in series [3], in series [4], in series [8], in [10] and in series [11] was Active. The outcome in [14] was Active. For the same compound, the Activity entry is “Dose-Dependent Effect” in [5] and “Tde” in [13]. In series [6], this compound gave an MRT last at 24 h of 16.3 min. The figures for the concentration for half-maximal inhibition (IC50) in [7] and in series [9] were over 100 µM and 11 nM, respectively. The compound further showed an IC50 at 3 days in series [12] of over 100 µM.

As usually defined, the MRT last is a mean duration of stay, worked out from the concentration-time curve. The term IC50 denotes the concentration needed to halve the response being measured.
